Where two headings read alike, the source gives them in different places.

One assay deals with Human venous whole blood. Nature of the assay: Human whole blood IFN-γ assay.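 Also: blood from healthy donors exposed to compound for 1 h before stimulation with anti-CD3 and anti-CD28 at 1 µg/mL each, IFN-γ quantified in supernatant by AlphaLISA.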 The following applies: human whole blood, anti-CD3 plus anti-CD28, 24 hours, 3 μM reference compound = 100% activation, read-out: INFg Whole Blood Normalized Agonist EC50. The class given is cell-based.
The next assay concerns the target T1, human DGKζ (Homo sapiens, UniProt Q13574).
T1 construct: TVMV protease cleavage site (C); Hexa-His (C); made in house; host or cells: Sf9 insect cells (baculovirus, Bac-to-Bac)
In words: DGKζ LIPGLO assay (extruded liposome substrate), in vitro DGK inhibition. To be noted: DGKζ liposome (LIPGLO) assay; read-out: DGKz LIPGLO IC50. The class given is biochemical.

For a further assay, the target named is T2, human DGKα (Homo sapiens, UniProt P23743).
T2 construct: TVMV protease cleavage site (C); Hexa-His (C); made in house; host or cells: Sf9 insect cells (baculovirus, Bac-to-Bac)
T2 sequence (P23743 with tags, fused parts or gaps): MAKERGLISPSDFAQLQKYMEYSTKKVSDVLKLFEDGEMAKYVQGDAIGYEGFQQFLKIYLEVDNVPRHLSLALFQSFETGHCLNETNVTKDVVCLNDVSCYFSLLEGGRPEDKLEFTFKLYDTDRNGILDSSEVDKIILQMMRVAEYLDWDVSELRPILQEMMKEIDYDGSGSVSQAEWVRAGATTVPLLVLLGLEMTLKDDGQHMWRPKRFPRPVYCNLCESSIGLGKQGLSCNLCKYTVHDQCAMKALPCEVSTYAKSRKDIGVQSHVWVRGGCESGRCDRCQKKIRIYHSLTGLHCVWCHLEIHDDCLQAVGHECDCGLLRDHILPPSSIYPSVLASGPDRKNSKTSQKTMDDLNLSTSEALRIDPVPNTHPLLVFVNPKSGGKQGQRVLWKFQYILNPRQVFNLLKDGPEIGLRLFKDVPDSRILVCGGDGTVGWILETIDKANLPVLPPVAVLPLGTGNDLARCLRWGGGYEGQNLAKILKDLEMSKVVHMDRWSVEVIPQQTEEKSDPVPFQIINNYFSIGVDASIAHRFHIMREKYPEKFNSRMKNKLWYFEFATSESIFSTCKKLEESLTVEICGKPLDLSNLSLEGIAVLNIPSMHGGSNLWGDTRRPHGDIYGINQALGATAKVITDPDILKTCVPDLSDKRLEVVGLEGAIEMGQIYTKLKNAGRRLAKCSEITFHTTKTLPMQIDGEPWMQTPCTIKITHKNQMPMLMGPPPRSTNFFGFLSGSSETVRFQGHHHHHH
Nature of the assay: DGKα LIPGLO assay (extruded liposome substrate), in vitro DGK inhibition. The class given is biochemical.

The mark [1] stands for this setting: DGKα liposome (LIPGLO) assay, read-out: DGKa LIPGLO IC50.
Where [2] appears, read: DGKa LIPGLO IC50, DGKα liposome (LIPGLO) assay.

T1 sequence (Q13574 with tags, fused parts or gaps isoform Q13574-4): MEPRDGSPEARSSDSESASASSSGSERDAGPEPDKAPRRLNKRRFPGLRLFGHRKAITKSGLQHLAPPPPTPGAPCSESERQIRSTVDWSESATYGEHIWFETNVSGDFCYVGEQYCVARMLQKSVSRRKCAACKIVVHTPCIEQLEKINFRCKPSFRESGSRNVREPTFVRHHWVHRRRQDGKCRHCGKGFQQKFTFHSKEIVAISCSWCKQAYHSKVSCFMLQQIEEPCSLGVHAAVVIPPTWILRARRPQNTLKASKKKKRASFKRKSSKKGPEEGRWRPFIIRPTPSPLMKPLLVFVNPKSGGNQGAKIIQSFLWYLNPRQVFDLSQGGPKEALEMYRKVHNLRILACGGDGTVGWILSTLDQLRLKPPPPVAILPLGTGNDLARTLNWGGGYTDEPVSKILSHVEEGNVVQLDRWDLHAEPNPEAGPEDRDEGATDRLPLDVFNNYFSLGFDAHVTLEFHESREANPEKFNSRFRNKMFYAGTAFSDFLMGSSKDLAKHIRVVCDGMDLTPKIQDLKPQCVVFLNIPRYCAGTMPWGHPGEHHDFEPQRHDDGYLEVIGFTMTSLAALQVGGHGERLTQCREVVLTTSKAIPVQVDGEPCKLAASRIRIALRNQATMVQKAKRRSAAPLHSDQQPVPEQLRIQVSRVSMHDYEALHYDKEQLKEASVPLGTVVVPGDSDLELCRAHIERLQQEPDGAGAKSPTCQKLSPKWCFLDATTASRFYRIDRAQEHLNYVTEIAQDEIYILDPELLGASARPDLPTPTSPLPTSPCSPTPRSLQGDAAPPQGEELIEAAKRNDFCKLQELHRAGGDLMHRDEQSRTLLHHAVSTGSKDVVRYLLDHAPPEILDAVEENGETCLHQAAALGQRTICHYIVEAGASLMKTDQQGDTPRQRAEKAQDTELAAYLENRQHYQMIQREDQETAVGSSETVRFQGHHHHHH
Experimental for Human venous whole blood: Human Whole Blood IFN-γ Assay
Human venous whole blood (22.5 μL per well), obtained from healthy donors, was pre-treated with compounds for one hour at 37° C. in a humidified 95% air/5% CO2 incubator. The blood was stimulated with 2.5 μL anti-human CD3 and anti-CD28 mAb at a final concentration of 1 μg/mL each for 24 hours at 37° C. IFN-γ in the supernatants was measured using AlphLISA kit (Cat # AL217).

Turning to `C[C@@H]1CN(c2cc(=O)n(C)c3ccc(C#N)nc23)[C@@H](C)CN1C(c1ccc(OC(F)(F)F)cc1)c1nc(C2CC2)no1` (single isomer, unassigned) [Example 758], the EC50 in the assay on Human venous whole blood (Homo sapiens, 24 h) turned out to be 0.3 µM. For the same compound, the IC50 at human DGKζ came to 75 nM; on human DGKα (setting [1]), 860 nM.
Regarding `C[C@@H]1CN(c2cc(=O)n(C)c3ccc(C#N)nc23)[C@@H](C)CN1C(c1ccc(OC(F)(F)F)cc1)c1nc(C2CC2)no1` (single isomer, unassigned) [Example 759], the EC50 with Human venous whole blood came to 0.27 µM. For the same compound, the IC50 on human DGKζ came out at 290 nM; on human DGKα (setting [1]), 85 nM.
Consider `C[C@@H]1CN(c2cc(=O)n(C)c3ccc(C#N)nc23)[C@@H](C)CN1C(c1ccc(F)cc1)c1nnc(C2CC2)o1` (single isomer, unassigned) [Example 763], for which the EC50 in the assay with Human venous whole blood (Homo sapiens, 24 h) turned out to be 1.8 µM. Further, the IC50 came out at 760 nM on human DGKζ and 4500 nM at human DGKα (setting [1]).
On to `C[C@@H]1CN(c2cc(=O)n(C)c3ccc(C#N)nc23)[C@@H](C)CN1C(c1ccc(F)cc1)c1nnc(C2CC2)[nH]1` (single isomer, unassigned) [Example 766], for which the EC50 in the assay with Human venous whole blood (Homo sapiens, 24 h) came to 3.5 µM. For the same compound, the IC50 on human DGKζ came to 9400 nM; on human DGKα (setting [1]), 660 nM.
With `C[C@@H]1CN(c2cc(=O)n(C)c3ccc(C#N)nc23)[C@@H](C)CN1C(c1ccc(F)cc1)c1nnc(C2CC2)[nH]1` (single isomer, unassigned) [Example 767], the EC50 with Human venous whole blood amounted to 2.3 µM. The results for the IC50 at human DGKζ and on human DGKα (setting [1]) were 6600 nM and 440 nM, respectively.
With `C[C@@H]1CN(c2cc(=O)n(C)c3ccc(C#N)nc23)[C@@H](C)CN1C(c1ccc(F)cc1)c1nc(C2CC2)nn1C` (single isomer, unassigned) [Example 768], in the assay on Human venous whole blood, the EC50 was 1.8 µM. Also, the results for the half-maximal inhibitory concentration (IC50) at human DGKζ and at human DGKα (setting [1]) were 3200 nM and 14000 nM, respectively.
The matching figures for `C[C@@H]1CN(c2cc(=O)n(C)c3ccc(C#N)nc23)[C@@H](C)CN1C(c1ccc(F)cc1)c1nc(C2CC2)nn1C` (single isomer, unassigned) [Example 769]: 0.46 µM, 200 nM and 16000 nM.
Turning to `C[C@@H]1CN(c2cc(=O)n(C)c3ccc(C#N)nc23)[C@@H](C)CN1C(c1ccc(F)cc1)c1nnnn1C(C)(C)C` (single isomer, unassigned) [Example 770], in the assay with Human venous whole blood (Homo sapiens, 24 h), the EC50 was 8.5 µM. Further, the values for the IC50 on human DGKζ and on human DGKα (setting [1]) were 1700 nM and 21000 nM, respectively.
Regarding `C[C@@H]1CN(c2cc(=O)n(C)c3ccc(C#N)nc23)[C@@H](C)CN1C(c1ccc(F)cc1)c1nnnn1C(C)(C)C` (single isomer, unassigned) [Example 771], the EC50 with Human venous whole blood was 10 µM. The values for the IC50 at human DGKζ and on human DGKα (setting [1]) were 8500 nM and 6300 nM, respectively.
For `CC(C)c1nnc(C(c2ccc(F)cc2)N2C[C@H](C)N(c3cc(=O)n(C)c4ccc(C#N)nc34)C[C@H]2C)s1` (single isomer, unassigned) [Example 772], in that order: 1.4 µM, 27 nM and 4.7 nM.
The matching figures for `CC(C)c1nnc(C(c2ccc(F)cc2)N2C[C@H](C)N(c3cc(=O)n(C)c4ccc(C#N)nc34)C[C@H]2C)s1` (single isomer, unassigned) [Example 773]: 7.9 µM, 700 nM and 760 nM.
On to `C[C@@H]1CN(c2cc(=O)n(C)c3ccc(C#N)nc23)[C@@H](C)CN1C(c1ccc(F)cc1)c1nc(C2CC2)co1` (single isomer, unassigned) [Example 777], for which the EC50 in the assay with Human venous whole blood (Homo sapiens, 24 h) came to 0.77 µM. Moreover, the IC50 at human DGKζ amounted to 750 nM; on human DGKα (setting [1]), 68 nM.
The matching figures for `C[C@@H]1CN(c2cc(=O)n(C)c3ccc(C#N)nc23)[C@@H](C)CN1C(c1ccc(F)cc1)c1nc(C(C)(C)C)co1` (single isomer, unassigned) [Example 779]: 0.01 µM, 12 nM and 110 nM.
The matching figures for `CC(c1c(F)cccc1F)N1C[C@H](C)N(c2c(C#N)c(=O)n(C)c3ccc(C#N)nc23)C[C@H]1C` (single isomer, unassigned) [Example 780]: 14 µM, 31000 nM and 1500 nM.
The matching figures for `CC(c1c(F)cccc1F)N1C[C@H](C)N(c2c(C#N)c(=O)n(C)c3ccc(C#N)nc23)C[C@H]1C` (single isomer, unassigned) [Example 781]: 0.83 µM, 120 nM and 74 nM.
Regarding `CC(c1ccc(F)cc1)N1C[C@H](C)N(c2c(C#N)c(=O)n(C)c3ccc(C#N)nc23)C[C@H]1C` (single isomer, unassigned) [Example 782], the EC50 in the assay with Human venous whole blood (Homo sapiens, 24 h) is 1.1 µM. Also, the IC50 at human DGKζ was 3400 nM; at human DGKα (setting [1]) it was 180 nM.
Take `Cc1ccc(C(C)N2C[C@H](C)N(c3c(C#N)c(=O)n(C)c4ccc(C#N)nc34)C[C@H]2C)cc1` (single isomer, unassigned) [Example 784]: in the assay on Human venous whole blood, the EC50 was 2 µM. Further, the IC50 on human DGKζ was determined as 2600 nM; at human DGKα (setting [1]) it was 1200 nM.
Consider `Cc1ccc(C(C)N2C[C@H](C)N(c3c(C#N)c(=O)n(C)c4ccc(C#N)nc34)C[C@H]2C)cc1` (single isomer, unassigned) [Example 785], for which the EC50 in the assay with Human venous whole blood was 6.4 µM. In addition, the IC50 is above 250000 nM at human DGKζ and 690 nM on human DGKα (setting [1]).
Regarding `CC(c1ccc(Cl)cc1)N1C[C@H](C)N(c2c(C#N)c(=O)n(C)c3ccc(C#N)nc23)C[C@H]1C` (single isomer, unassigned) [Example 791], the EC50 in the assay with Human venous whole blood amounted to 1.3 µM. In addition, the IC50 at human DGKζ was 5700 nM; at human DGKα (setting [2]), 1900 nM.
Turning to `CC(c1ccc(Cl)cc1)N1C[C@H](C)N(c2c(C#N)c(=O)n(C)c3ccc(C#N)nc23)C[C@H]1C` (single isomer, unassigned) [Example 792], the EC50 in the assay with Human venous whole blood was determined as 21 µM. Moreover, the values for the IC50 at human DGKζ and at human DGKα (setting [2]) were 83000 nM and 1500 nM, respectively.
`COC(=O)c1cccc(C(C)N2C[C@H](C)N(c3c(C#N)c(=O)n(C)c4ccc(C#N)nc34)C[C@H]2C)c1` (single isomer, unassigned) [Example 795]: the EC50 in the assay with Human venous whole blood (Homo sapiens, 24 h) is 20 µM. The IC50 at human DGKζ was 160000 nM; at human DGKα (setting [1]), 13000 nM.
As for `COC(=O)c1cccc(C(C)N2C[C@H](C)N(c3c(C#N)c(=O)n(C)c4ccc(C#N)nc34)C[C@H]2C)c1` (single isomer, unassigned) [Example 796], the EC50 in the assay on Human venous whole blood was 20 µM. The IC50 turned out to be 2200 nM at human DGKζ and 240000 nM at human DGKα (setting [1]).
The matching figures for `CC(c1ccccc1F)N1C[C@H](C)N(c2c(C#N)c(=O)n(C)c3ccc(C#N)nc23)C[C@H]1C` (single isomer, unassigned) [Example 797]: 1.8 µM, 8600 nM and 1800 nM.
The matching figures for `CC(c1ccccc1F)N1C[C@H](C)N(c2c(C#N)c(=O)n(C)c3ccc(C#N)nc23)C[C@H]1C` (single isomer, unassigned) [Example 798]: 20 µM, above 250000 nM and 9800 nM.
The matching figures for `COc1ccc(C(C)N2C[C@H](C)N(c3c(C#N)c(=O)n(C)c4ccc(C#N)nc34)C[C@H]2C)nc1` (single isomer, unassigned) [Example 799]: 20 µM, 9900 nM and 860 nM.
In the case of `COc1ccc(C(C)N2C[C@H](C)N(c3c(C#N)c(=O)n(C)c4ccc(C#N)nc34)C[C@H]2C)nc1` (single isomer, unassigned) [Example 800], in the assay with Human venous whole blood, the EC50 was found to be 5.9 µM. In addition, the IC50 was found to be 330 nM at human DGKζ and 380 nM at human DGKα (setting [1]).
With `CC(c1ccc(OC(F)(F)F)cc1)N1C[C@H](C)N(c2c(C#N)c(=O)n(C)c3ccc(C#N)nc23)C[C@H]1C` (single isomer, unassigned) [Example 801], in the assay with Human venous whole blood (Homo sapiens, 24 h), the EC50 amounted to 13 µM. Besides, the IC50 on human DGKζ is 2200 nM; on human DGKα (setting [1]), 68 nM.
Regarding `CC(c1ccc(OC(F)(F)F)cc1)N1C[C@H](C)N(c2c(C#N)c(=O)n(C)c3ccc(C#N)nc23)C[C@H]1C` (single isomer, unassigned) [Example 802], the EC50 with Human venous whole blood stood at 10 µM. Besides, the IC50 stood at 24000 nM at human DGKζ and 1300 nM at human DGKα (setting [1]).
In the case of `Cc1cc(C(C)N2C[C@H](C)N(c3c(C#N)c(=O)n(C)c4ccc(C#N)nc34)C[C@H]2C)no1` (single isomer, unassigned) [Example 803], the EC50 in the assay with Human venous whole blood (Homo sapiens, 24 h) stood at 20 µM. For the same compound, the IC50 on human DGKζ is 7000 nM; at human DGKα (setting [1]) it was 2000 nM.
As for `Cc1cc(C(C)N2C[C@H](C)N(c3c(C#N)c(=O)n(C)c4ccc(C#N)nc34)C[C@H]2C)no1` (single isomer, unassigned) [Example 804], in the assay with Human venous whole blood, the EC50 was found to be 20 µM. The IC50 at human DGKζ was 32000 nM; on human DGKα (setting [1]), 6900 nM.
Consider `CCc1ccccc1C(c1ccc(F)cc1)N1C[C@H](C)N(c2c(C#N)c(=O)n(C)c3ccc(C#N)nc23)C[C@H]1C` (single isomer, unassigned) [Example 809], for which, in the assay with Human venous whole blood (Homo sapiens, 24 h), the EC50 was 20 µM. The IC50 at human DGKζ came out at 2300 nM; at human DGKα (setting [1]), 140000 nM.
Regarding `CCc1ccccc1C(c1ccc(F)cc1)N1C[C@H](C)N(c2c(C#N)c(=O)n(C)c3ccc(C#N)nc23)C[C@H]1C` (single isomer, unassigned) [Example 810], in the assay with Human venous whole blood, the EC50 came to 20 µM. Also, the IC50 on human DGKζ came out at 23000 nM; at human DGKα (setting [1]) it was 240000 nM.
As to `CCc1ccc(C(c2ccc(F)cc2)N2C[C@H](C)N(c3c(C#N)c(=O)n(C)c4ccc(C#N)nc34)C[C@H]2C)cc1` (single isomer, unassigned) [Example 811], in the assay with Human venous whole blood (Homo sapiens, 24 h), the EC50 is 2.1 µM. Moreover, the IC50 is 2600 nM at human DGKζ and 9300 nM on human DGKα (setting [1]).

What is called EC50 is the concentration needed to bring the measured effect to its halfway point. By IC50 is commonly meant the midpoint of a concentration-inhibition curve.

(Values after patent US10669272B2, “Substituted naphthyridinone compounds useful as T cell activators” (BRISTOL-MYERS SQUIBB COMPANY, priority 2018, dated 2020).)
